“Also recorded” adds a separate entry of the source.
Experiments:
[1] = system: human kidney organoids; test: cisplatin injury of human kidney organoids: immunostaining, organoid size; format: cell-based; conditions: intermittent cisplatin, 5 treatments; for proximal tubule cells: confocal microscopy
Procedure: FIG. 7. SK-124 preserves human kidney organoid integrity in cisplatin injury model. Human kidney organoids derived from H9 embryonic stem cells were treated with intermittent cisplatin (5 separate treatments) based on published protocols along with the indicated agent. Organoids were cryo-sectioned and immuno-stained with the indicated markers. The top panels show low power images and the bottom panels focus on regions of proximal tubule cells. The graph measures the mean diameter of organoids in the control (no cisplatin), cisplatin+DMSO, and cisplatin+SK-124 treatment groups.
(§1) BJFF human induced pluripotent stem cells (hPSCs) were maintained on Geltrexcoated (Thermo Fisher Scientific) plates using StemFit Basic04 Complete (Ajinomoto Co. Inc.) as previously reported(25). The cells were passaged weekly using Accutase (STEMCELL Technologies) for dissociation and Y27632 (Tocris) for adhesion. Directed differentiation of hPSCs into kidney organoids has been published elsewhere (29). Briefly, hPSCs were differentiated into metanephric mesenchyme cells on day 8 by a three-step directed differentiation protocol. Metanephric mesenchyme was transferred into suspension culture in 96-well ultralow adhesion plates (Coming) and further differentiated into kidney organoids, as previously reported(25). Quality control measures of SIX2 immunostaining on day 8 of differentiation and CDH1, LTL, PODXL, CD146, MEIS1/2/3, and SYTOX-blue staining on day 21 were performed on all batches of kidney organoids to limit batch-to-batch heterogeneity. Kidney organoids were maintained in 200 μl of basal media consisting of Advanced RPMI (Thermo Fisher Scientific) and GlutaMAX (Thermo Fisher Scientific) in 96-well plates, as previously reported. Media changes were conducted three times weekly with removal of 90 [l and addition of 100 μl of fresh basal media.
(§2) For cisplatin induced injury, day 49 organoids were treated with 5 μM cisplatin in basal media after full media change. After 24 hours, full media exchanges were performed. This 24-hour treatment was performed twice a week, on day 52-53, day 56-57, day 59-60, and day 63-64 as well, for a total of five cisplatin treatments. Samples were obtained for RT-qPCR and immunostaining immediately following each 24-hour treatment with cisplatin, and from corresponding controls.
Following the treatment, the organoids were collected and immediately fixed in 4% PFA in PBS for 1 hour at room temperature, submerged in 30% sucrose overnight at 4° C., then embedded in O.C.T. Compound (4585. Fisher HealthCare). Subsequently, […] frozen sections were prepared via cryo-sectioning by a cryostat. After 1 hr blocking at room temperature, the sections were treated overnight at 4° C. with primary antibodies in antibody dilution buffer (ADB) with biotinylated LTL (1:200, B-1325, Vector), rat anti-CDH1 (1:500, ab11512, Abcam), goat anti-PODXL (1:500, AF1658, R&D Systems), as well as the antibody of interest, either mouse anti-p21 (1:200, NBP2-43697, Novus Biologicals), or rabbit anti-γH2AX (1:100, 2577, Cell Signaling) antibodies. For the optimum labeling of LTL by biotin/streptavidin interaction, the Streptavidin/Biotin Blocking Kit (SP-2002, Vector Laboratories) was applied according to the manufacturer's instructions. After washing, the samples were stained for 1 hour at RT with the nuclear dye-SYTOX Blue (1:500. S 11348, Invitrogen) and the corresponding secondary antibodies in ADB such as streptavidin-AF750 (1:500, S21384, Invitrogen), donkey anti-rat IgG-AF594 (1:500, A21209, Invitrogen), donkey anti-goat IgG-AF555 (1:500, A21432, Invitrogen), and donkey anti-rabbit IgG-AF488 (1:500, A21206, Invitrogen) for γH2AX or donkey anti-mouse IgG-AF488 (1:500, A21202, Invitrogen) for p21 antibodies as well as mouse anti-Meisl/⅔ (1:200, sc-101850, SantaCruz) conjugated antibody, and slides were mounted with Vectashield antifade mounting medium (H1000, Vector Laboratories). […]

[2] = system: human kidney organoids; test: RT-qPCR in cisplatin-injured human kidney organoids; format: cell-based; conditions: for proximal tubule marker genes / fibrosis/injury marker genes: panel; for fibrosis/injury marker genes: five cisplatin cycles (FIG. 12B)
From the text: FIG. 8. SK-124 treatment restores gene expression changes in cisplatin-injured human kidney organoids. RNA was isolated from organoids treated as in FIG. 7 for RT-qPCR for the indicated genes. Injury markers (Pai-1, Fibronectin-1, and Co18a1) are induced by cisplatin treatment and reduced by SK-124. In contrast, the proximal tubule marker Lrp2 is reduced by cisplatin treatment and rescued by SK-124.
FIGS. 10A-10B. SK-124 treatment restores gene expression changes in cisplatin-injured human kidney organoids. RNA was isolated from organoids treated as in FIG. 9 with the indicated number of cisplatin cycles plus DMSO control (“Cis”) or SK-124 (10 μM; “Cis+SK”) for RT-qPCR. […] (B) Injury/fibrosis markers (FN-1, Co/8a1, and Pai-1) were induced by cisplatin and suppressed by SK-124.
FIGS. 12A-12B. SK-124 protects human kidney organoids from cisplatin injury in a dose-dependent manner. RNA was isolated from organoids treated as in FIG. 11 for RT-qPCR. (A) Proximal tubule marker genes are reduced by cisplatin and increased by SK-124. (B) Fibrosis/injury marker genes are induced by cisplatin and reduced by SK-124.
as §1, §2
cDNA was prepared using Primescript RT kit (Takara Inc), with 750 ng RNA per reaction. RT-qPCR was performed by using PerfeCa® SYBR® Green FAstMix® ROX (Quanta bio) in the StepOnePlus™ Real-time PCR System (Applied Biosystems). Hmbs was used as a control housekeeping gene for mouse samples, and B-Actin was used for organoids, relative expression was calculated (2^-deltaCT method) and compared to the mean of control group if necessary. Primers used for RT-qPCR are listed in Table 2 (mouse primers) and Table 3 (human primers).

[3] = 5 cisplatin treatments (FIG. 8)
[4] = 5 cisplatin treatments (FIG. 8), Co18a1 [sic]
[5] = dose response, five cisplatin cycles (FIG. 12)
[6] = dose response, five cisplatin cycles (FIG. 12A)
[7] = time course, indicated number of cisplatin cycles, SK-124 10 μM (FIG. 10A)
[8] = time course, indicated number of cisplatin cycles, SK-124 10 μM (FIG. 10B)

Structure (SMILES)	cisplatin-induced organoid atrophy [1]	organoid cellularity and size in response to cisplatin injury [1]	proximal tubule cells [1]	Fibronectin-1 expression [2, 3]	Lrp2 expression [2, 3]	Pai-1 expression [2, 3]	Col8a1 expression [2, 4]	doses at which therapeutic effects are noted in the injury model ([2]; dose response, cisplatin-injured organoids)	Col8al expression [2, 5]	Fibronectin-1 expression [2, 5]	Pai-1 expression [2, 5]	Lrp2 expression [2, 6]	Pth1r expression [2, 6]	proximal tubule marker genes [2, 6]	fibrosis/injury marker genes ([2]; dose response)	Lrp2 expression [2, 7]	Slc17a2 expression [2, 7]	Col8a1 expression [2, 8]	Fibronectin-1 (FN-1) expression [2, 8]	Pai-1 expression [2, 8]
CCc1nnc(-c2c(OC)cc(-c3cnc4cc(-c5cnn(C)c5)ccn34)cc2OC)o1 [SK-124, 2-[2,6-Dimethoxy-4-[7-(1-methylpyrazol-4-yl)imidazo[1,2-a]pyridin-3-yl]phenyl]-5-ethyl-1,3,4-oxadiazole]	reduced cisplatin-induced organoid atrophy	preserves organoid cellularity and size	preserved proximal tubule cells	reduced; also recorded: blocked	rescued; also recorded: preserved expression	reduced; also recorded: blocked	reduced; also recorded: blocked	below 1 μM	suppressed	suppressed	suppressed	dose-dependent restoration	dose-dependent restoration	increased	reduced	restored; also recorded: improved expression	restored; also recorded: improved expression	suppressed expression	suppressed expression	suppressed expression
N.N.[Cl][Pt][Cl] [cisplatin, reference compound]			proximal tubular loss	induced	reduced	induced	induced		induction	induction	induction	suppression	suppression	reduced	induced	progressively reduced	progressively reduced	induced	induced	induced

Source: patent publication US20260306463A1, “SIK INHIBITORS TO TREAT CHRONIC KIDNEY DISEASE” (The General Hospital Corporation, priority 2023, published 2026)
